Square brackets hold non-standard residues; d marks the D form. Ends that are not written are not given here. Oic = O=C(O)[C@@H]1C[C@@H]2CCCC[C@@H]2N1; Tic = O=C(O)[C@@H]1Cc2ccccc2CN1

The target in the assay is T1, recombinant human GzmA (hGzmA) (Homo sapiens, UniProt P12544).
T1 construct: active, mature form; purchased Enzo Life Sciences ALX-201-118-C010
T1 sequence (P12544 29-262): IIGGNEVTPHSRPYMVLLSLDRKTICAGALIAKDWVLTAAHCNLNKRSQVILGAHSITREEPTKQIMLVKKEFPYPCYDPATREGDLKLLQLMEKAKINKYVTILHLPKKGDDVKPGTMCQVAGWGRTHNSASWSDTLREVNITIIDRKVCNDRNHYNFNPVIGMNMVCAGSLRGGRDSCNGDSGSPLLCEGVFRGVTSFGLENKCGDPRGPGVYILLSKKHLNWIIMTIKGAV
Put plainly: In-gel fluorescence labeling of recombinant active hGzmA. It is filed as biochemical. Particulars: hGzmA 100 nM, 37 °C; for Labeling of recombinant hGzmA (in-gel Cy5 fluorescence): varying probe concentrations, 2 h, SDS-PAGE. Here is the method:
Figure 3 GzmA ABPs covalently and competitively label active human and mouse GzmA. […] Recombinant hGzmA (100 nM) was incubated with varying concentrations of each ABP at 37 °C. B) Competitive labeling of hGzmA. Recombinant hGzmA (100 nM) was preincubated with covalent inhibitors 1 or 2 (5 μM) for 2 h, followed by labeling with ABPs 3 –5 (50 nM) for 2 h at 37 °C. Note: Pro‐form of hGzmA (the first lane) is not effectively stained by SYPRO‐Ruby. C) Structure of qABP 6. D) Quenched natures of 5 and 6. […] F) Labeling of mGzmA (1 μM) with 5 and 6 (1 μM, 24 h, 37 °C). Protein samples were analyzed by SDS‐PAGE and in‐gel fluorescence scanning for Cy5 signal and SYPRO Ruby staining. […]
C. In-gel fluorescence imaging
For recombinant enzyme labeling, working solutions of hGzmA (purchased from R&D Systems, Cat. No. 2905-SE-010 for pro-from and Enzo Life Sciences, Cat. No.: ALX-201-118-C010 for active, mature form) were prepared by diluting a 12.6 µM stock in the following assay buffer: 50 […]
mM Tris, 100 mM NaCl, 5 mM CaCl2, 0.01% (v/v) Tween-20, pH 7.5. […]
In-gel fluorescence and
SYPRO-Ruby staining images were acquired on a Typhoon FLA9500 instrument, while western blot images were acquired on an AMHERST ImageQuant 800 instrument.
Conditions for probe/inhibitor treatment for in-gel fluorescence analysis: Inhibitors and probes were incubated with active (or pro-) GzmA followed by treatment with 4X SDS reducing sample buffer. Samples were then heated to 100 °C for 5 min, brought to room temperature, and centrifuged. 20 µL of each sample was loaded onto a 15% polyacrylamide gel, which was then subjected to electrophoresis followed by the acquisition of in-gel fluorescence images. GzmA labeling was confirmed by western blotting, while protein loading was confirmed with SYPRO-Ruby staining. Incubation conditions for each figure/experiment are described below:
Conditions for Figure 3A: For labeling comparison between 3, 4, and 5, 100 nM of human GzmA was incubated with various concentrations of each probe for 2 h at 37 °C. For time-dependent labeling, 50 nM of 5 was incubated with 100 nM of human GzmA at 37 °C for the specified durations. Final reaction volume for both was 20 µL.
Conditions for Figure 3B: 100 nM of human GzmA was incubated with DMSO or 5 µM of 1 or 2 for 2 h at 37 °C in Eppendorf tubes. 0.5 µL of a 2 µM solution of 3, 4, or 5 in DMSO was then spiked into the Eppendorf tube, yielding a final probe concentration of 50 nM. The solution was incubated for another 2 h at 37 °C. Final reaction volume was 20 µL.
Conditions for Figure 3E: 100 nM of human GzmA was incubated with various concentrations of 5 or 6, respectively, for 2 h at 37 °C. Final reaction volume was 20 µL.
Conditions for Figure 3F: 1 µM of mouse GzmA was incubated with 1 µM of 5 or 6, respectively, for 24 h at 37 °C. Final reaction volume was 20 µL.
Conditions for Figure 4A: 1 mg/mL of lysates was incubated with various concentrations of 5 or 6, respectively, for 1 h at 37 °C.
Conditions for Figure 4C: Various concentrations of probes 3-6 were incubated with 1x10^6 NK-92 cells for 2 h at 37 °C in a humidified incubator. Cells were centrifuged, washed with PBS (x2) and lysed with ~40 µL of ice-cold RIPA buffer. Lysates were collected, protein concentration was measured with PIERCE BCA protein assay and samples were analyzed with in-gel fluorescence and GzmA western blotting. […]
All flow cytometry data were collected on BD LSRFortessa and FACSymphony A5 Cell Analyzers and analyzed with FlowJo software. Briefly, cells were processed according to the intended protocols for each experiment. Thereafter, cells were pelleted, fixed in the dark for 20 min at room temperature (Fixation buffer: BioLegend #420801), and pelleted again by centrifugation. Fixed cells were then resuspended in 1x intracellular staining perm wash buffer (BioLegend #421002), followed by centrifugation two times. Fixed/Permeabilized cells were then resuspended in […]

Consider [Tic]G[Oic]R [compound 6], for which the “Labeling of recombinant hGzmA (in-gel Cy5 fluorescence)” value (“Labeling of recombinant hGzmA” for short) is listed as “efficiently (and slightly more strongly than 5) labeled”.

On to GFFR [compound 7], for which the “Labeling of recombinant hGzmA” value was “lower labeling efficiency for both hGzmA and mGzmA compared with probes 5 and 6”.

With IGNR [compound 5], the “Labeling of recombinant hGzmA” value is recorded as “efficiently label recombinant human GzmA (hGzmA) at submicromolar concentrations”. Further, where the note is “time course with 50 nM probe”, the “Concentration and time dependence of labeling of active hGzmA” value was “concentration‐ and time‐dependent labeling”.

The values are drawn from paper PMC12703428, “Development of Granzyme A Turn‐ON Fluorescent Activity‐Based Probes” (Chembiochem, 2025).
